Structure (SMILES)	melting point
CCOC(=O)C1=C(c2ccc(-n3c(C)nc4cnccc43)cc2)NC(C)=C(C(=O)OCCC#N)C1c1ccccc1Cl (stereo not given)	177 to 179 °C
COc1cc2nc(C)nc(N3CCN(C(=O)Nc4ccc(Oc5ccccc5)cc4)CC3)c2cc1OC	146 to 147 °C
CNC(=O)c1ccc(C(=O)OC)cc1N	167 to 168 °C
CCCCCCCCOc1ccc(-c2nnn[nH]2)c(O)c1	142 to 146 °C
CCCC(O)(C=Cc1ccccc1)CC(=O)OC (stereo not given)	43 °C
CC(C)c1ccc2c(c1)c(SCc1ccccc1)c(CC(C)(C)C(=O)O)n2Cc1ccc(Cl)cc1	135 to 137 °C
Nn1cccc1C(=O)c1cccs1	81 to 82 °C
CC1(C)COS(=O)Oc2ccc(C#N)cc21 (stereo not given)	87 to 88 °C
NC(=O)c1cc(O)cc2nc(-c3ccc(O)cc3)oc12	325 °C
Cc1ccc(-c2nc(O)c(C)s2)cc1	172 to 174 °C
Clc1ccc2onc(Cn3ccnc3)c2c1	100 to 102 °C
O=C1NC2(C(=O)O)CC3CC1C2C3 (stereo not given)	298 to 300 °C
Fc1ccc2c(c1F)OCc1csc(=S)n1-2	163 to 167 °C
Cc1cc(C(=O)Nc2cccc(Sc3ccc4nc(NC(=O)C5CC5)cn4n3)c2)n(C)n1	251 °C
O=C(c1ccccc1)c1ccc(CCl)cc1	109 to 111 °C
COc1ccccc1NC(=O)c1ccccc1CN1C(=O)C2(COc3cc4c(cc32)CCO4)c2ccccc21 (stereo not given)	172 to 174 °C
CCCCOc1ccc(S(=O)(=O)C2(C(=O)NO)CCN(Cc3ccccc3)CC2)cc1	144 °C
Cc1oc2ccc(C#N)cc2c1Cl	132 to 134 °C
O=C1NC(=O)C(=Cc2ccc(OCc3cccc(Cl)c3)cc2)S1	182 to 183 °C
O=C(NCCN1CCN(c2cc(C(F)(F)F)ccn2)CC1)c1ccc(F)cc1	159 °C
O=c1c(Br)c(N2CCOCC2)oc2ccccc12	145 to 146 °C
COC(=O)c1cccc(C=CC(=O)c2cc(OC)ccc2OC)c1	108 to 110 °C
Cc1c(Br)ccc(F)c1N	49 to 50 °C
COc1ccc(CCN(C)CCCOc2ccc(NC(=O)c3cccc4c(=O)c5ccccc5[nH]c34)cc2)cc1OC	140 °C
CCOC(=O)Cc1nc(Cl)c(Cl)s1	63 °C

Structure (SMILES)	melting point
O=[N+]([O-])c1ccc(Nc2cccc(-n3cccc3)c2)c([N+](=O)[O-])c1	116 to 118 °C
NC(=O)c1cc(COc2ccc([N+](=O)[O-])cc2)ccn1	172 to 174 °C
CC1(O)C(CO)OC(n2cnc3c(N)ncnc32)C1(C)O (stereo not given)	180 °C
Cc1ccc(S(=O)(=O)NC(=O)OCCc2ccc(-n3c(CCCc4ccccn4)nc4cc(C(F)(F)F)c(Cl)cc43)cc2)cc1	193 °C
CS(=O)(=O)c1cccc(NC(=O)c2cnn3c(C(F)(F)F)cc(-c4ccc(C(F)(F)F)c(F)c4)nc23)c1	246 °C
CN(CCCN1c2ccccc2CCc2ccccc21)C(=O)c1cccnc1	84 to 86 °C
Cn1ccnc1Sc1cc(Cl)ccc1N	116 to 120 °C
CCOCc1nc2c(N)nc3cc(-c4ccc(F)nc4)cnc3c2n1CC(C)(C)F	198 to 199 °C
Cc1cc(Cl)ccc1N=CNN=C(c1ccc(Cl)cc1)c1ccc(OS(C)(=O)=O)cc1	60 to 100 °C
Cc1cc(-c2ccc(C(F)(F)F)nc2)nc(-c2ccnc(-c3cccc(S(N)(=O)=O)c3)c2)n1	255 °C
CC(C)(C)OC(=O)N1CCn2ccc(C#N)c2C1	97 °C
CCc1nn(-c2c(Cl)cc(Cl)cc2Cl)c(N)c1C(N)=O	186 to 188 °C
COc1ccc2[nH]c(SCc3ncc(C)c(N4CCCCC4)c3Cl)nc2c1	154 to 156 °C
CC1(C)CN=C2N(C1)c1ccc(C(=O)O)cc1C21OCCCO1	151 to 153 °C
Clc1cc(CCCn2ccnc2)ccc1OCc1coc(-c2cccs2)n1	93 to 94 °C
c1ccc(-c2cc(-c3ccc(-c4nccc5ccccc45)cc3)cc(-c3nc(-c4ccccc4)nc(-c4ccccc4)n3)c2)cc1	280 °C
CC(=O)SCCN1C(=O)c2ccccc2C1=O	112 to 114 °C
CCCCCC(=O)NC(C(C)=O)c1ccccc1 (stereo not given)	77 to 78 °C
COc1ccc(C(=O)Nc2ccc(-c3ccc(-c4noc(C)n4)cc3C)cc2)cc1CCCN(C)C	163 to 165 °C
COC(=O)c1cc(N)c(F)c(-c2ccc(Cl)cc2)n1	177 to 179 °C
CCCCCCCCS(=O)(=O)NCCC(=O)O	122 °C
CC(C)n1nc(-c2cc(C#N)c(Cl)nc2-c2ccccc2)ccc1=O	191 to 192 °C
O=C(O)Cn1ncc(-c2ccccc2)c1-c1ccccc1	169 to 170 °C
CS(=O)(=O)c1ccc(-c2cc(Br)sc2-c2ccc(F)cc2)cc1	122 to 124 °C
NC1CCC(CCN2CCN(c3ccccc3)CC2)CC1 (stereo not given)	65 to 70 °C

Structure (SMILES)	melting point
CCOC(=O)c1ncn(C(c2ccccc2)(c2ccccc2)c2ccccc2)c1C	188 to 190 °C
C=CC(=O)NC(Cc1ccccc1)C(=O)O (stereo not given)	136 to 138 °C
CCCc1oc(-c2ccccc2)nc1COc1ccc(CO)cc1	79 to 80 °C
CCOC(=O)C(=O)Nc1cc(Cl)c(Cl)c(Cl)c1[N+](=O)[O-]	84 °C
Fc1ccc2c(N3CCN(Cc4ccccc4)CC3)n[nH]c2c1	162 °C
CCNC(=S)NS(=O)(=O)c1cc2c(cc1OCC)OCCC2CNC(=O)N1CC(C)=C(CC)C1=O (stereo not given)	178 to 180 °C
C=CCNC(=O)N(O)Cc1c(C)n(C(=O)c2ccc(Cl)cc2)c2ccc(OC)cc12	148 to 149 °C
COC(=O)c1ccc(-c2nc3ccc(C(=O)O)cc3[nH]2)cc1	308 to 309 °C
O=C(OCc1ccc(OCCCCCCc2ccc(Cl)cc2)cc1)c1cccnc1	56 to 57 °C
CS(=O)CC(=O)c1ccon1 (stereo not given)	164 to 166 °C
CCCCCCSC[C@H](N[C@@H](C)C(=O)N1CCC[C@H]1C(=O)O)C(=O)O	109 to 112 °C
CN(C)C(=O)c1nc(-c2ccccc2)nc2[nH]c3ccccc3c12	218 to 219 °C
CCOCc1nc2c(N)nc3ccccc3c2n1CC1(OCCS(C)(=O)=O)CCC1	221 to 223 °C
CSC(N)=C(Cc1ccccc1)[N+](=O)[O-]	112 °C
O=[N+]([O-])c1cccc(-n2ccnc2)c1	101 to 102 °C
CNC(=O)c1ccc(F)c2c1CC(N(CCCc1c[nH]c3ccc(F)cc13)CC1CC1)CO2 (stereo not given)	120 °C
O=C(NCc1ccccc1)c1ccnc(NC(=O)c2ccc(F)cc2)c1	170 to 171 °C
O=Cc1cccc(OCc2ccccc2)c1Br	125 to 126 °C
OC1CSC(Sc2ccc(C(F)(F)F)cc2)C(O)C1O (stereo not given)	128 to 130 °C
COc1cc2c(cc1Nc1ncc(Cl)c(Nc3cccnc3OC)n1)CCN(CC(=O)N(C)C)CC2	68 to 76 °C
Cc1cc(C)c2cccc(OCc3c(C)ccc(S(=O)(=O)N4CCC[C@H]4C(=O)NCCCNC(=O)c4ccc(C=NN)cc4)c3C)c2n1	150 °C
Cn1cnc(COc2nn3c(-c4cnccn4)nnc3cc2-c2ccccc2)n1	257 to 258 °C
Clc1ccc(C2(Cn3ccnc3)OCC(COc3ccc(N4CCN(c5ccc(-n6cnnn6)cc5)CC4)cc3)O2)c(Cl)c1 (stereo not given)	201 °C
O=C1c2ccccc2C(=O)C1(c1ccccc1)N1CCC(c2noc3cc(F)ccc23)CC1	149 to 150 °C
CS(=O)(=O)Nn1c(=O)[nH]c2cc(C(F)(F)F)c(-c3cccc(C#N)c3)cc2c1=O	291 to 292 °C

Structure (SMILES)	melting point
CCc1ccc(Nc2c(-c3nnc(NCCNC)o3)ccc(F)c2F)c(F)c1	154 to 157 °C
Cc1ccccc1Cc1ccc(C(=O)O)o1	136 to 138 °C
C#CCn1cc(F)cnc1=O	107 to 108 °C
CN(C)CCSc1sc(-c2cc[nH]n2)c2c1C(=O)CC(C)(C)C2	212 to 214 °C
CCc1noc(-c2cn(-c3c(OCc4ccccc4)cccc3OCc3ccccc3)cn2)n1	149 to 150 °C
Cc1ccc(C(C)(C)C)c(O)c1-c1nc2cc(S(=O)(=O)C(F)(F)F)ccc2[nH]1	218 to 220 °C
C=CCOc1ccc2c(C)c(C(=O)C=Cc3cc(OC)c(OC)c(OC)c3)c(=O)oc2c1	138 to 140 °C
COc1ccc(-c2cc(=O)c3c(O)cc(OCC4=COC(C)(C)O4)cc3o2)cc1OC(=O)C(C)(C)C	204 to 205 °C
CCOc1ccc(F)c(CCN=C(N)Nc2ccc(Br)cn2)c1Cl	169 to 172 °C
CCCCCCCNC(=O)N(C)c1cccc(-c2ccc(C=C(OC)C(=O)O)cc2)c1	114 °C
COc1ccc(Nc2cc(=O)n(-c3ccc(Cl)cc3)nc2-c2nc[nH]n2)cc1	251 to 252 °C
OC1CSC(Oc2cc(-c3cccnc3)ccc2Cl)C(O)C1O (stereo not given)	172 °C
CC(=O)N1CCN(Cc2sccc2S(=O)(=O)N(C)c2cccc3cc(-c4nccs4)[nH]c23)CC1	242 °C
CCCCc1cn(Cc2ccc(-c3ccccc3C(=O)OC)cc2)c2cc(CO)ccc2c1=O	140 °C
COc1ccc2ccc3nc(C(=O)O)cn3c2c1	272 to 273 °C
O=C(O)c1cn(OCC2CN(Cc3ccccc3)CCN2Cc2ccccc2)c2cc(F)c(F)cc2c1=O (stereo not given)	158 to 159 °C
Cc1nccc2[nH]c(=O)c(-c3noc(C4CC4)n3)cc12	259 to 260 °C
COC(=O)c1cnc(C(=O)OC)c2ccccc12	69 to 70 °C
C=CCNC(=O)Oc1cc(-n2c(=O)cc(C(F)(F)F)n(C)c2=O)c(F)cc1Cl	98 to 100 °C
O=C(O)Cc1nc(-c2ccc(Cl)cc2)oc1-c1ccoc1	218 to 219 °C
O=C(O)c1cn2c(nc1=O)CCCCC2	198 °C
CNC(=C[N+](=O)[O-])N(C)Cc1ccc(Cl)nc1	103 to 104 °C
COc1ccccc1C1=Nc2ccc(C(=O)O)cc2C(=O)C1	290 to 294 °C
COC(=O)c1ccc(OCC2CCCN(C)C2)cc1 (stereo not given)	55 to 56 °C
CCc1ccc2ncc(CO)c(OC(C)C)c2c1	43 to 46 °C

Source: a melting point compilation (Tetko et al.; mined from patent text by program, amines drawn as free bases though some values may be those of a salt)
